{
  "source": "patent US20220242870A1",
  "about": "“HETEROCYCLE-FUSED PYRIMIDINE DERIVATIVE AND USE THEREOF” (VORONOI Inc., priority 2019, published 2022)",
  "key": {"MV4-11 cells": {"tested_on": "MV4-11 cells", "assay": "AML cell proliferation inhibitory activity (CellTiter-Glo)", "assay_type": "cell-based", "settings": "Homo sapiens, 72 hours", "outline": "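RS4;11 and MV4-11 cells in RPMI-1640 with 10% FBS, seeded 24 h before treatment, then exposed 72 h to 12 three-fold dilutions (0.3 nM–50 μM final). Viability by CellTiter-Glo luminescence relative to solvent control; GI50 from triplicate experiments.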"}, "human FLT3-ITD enzyme": {"molecular_target": "T1, human FLT3-ITD enzyme (Homo sapiens, UniProt P36888)", "T1 sequence (P36888 1-993)": "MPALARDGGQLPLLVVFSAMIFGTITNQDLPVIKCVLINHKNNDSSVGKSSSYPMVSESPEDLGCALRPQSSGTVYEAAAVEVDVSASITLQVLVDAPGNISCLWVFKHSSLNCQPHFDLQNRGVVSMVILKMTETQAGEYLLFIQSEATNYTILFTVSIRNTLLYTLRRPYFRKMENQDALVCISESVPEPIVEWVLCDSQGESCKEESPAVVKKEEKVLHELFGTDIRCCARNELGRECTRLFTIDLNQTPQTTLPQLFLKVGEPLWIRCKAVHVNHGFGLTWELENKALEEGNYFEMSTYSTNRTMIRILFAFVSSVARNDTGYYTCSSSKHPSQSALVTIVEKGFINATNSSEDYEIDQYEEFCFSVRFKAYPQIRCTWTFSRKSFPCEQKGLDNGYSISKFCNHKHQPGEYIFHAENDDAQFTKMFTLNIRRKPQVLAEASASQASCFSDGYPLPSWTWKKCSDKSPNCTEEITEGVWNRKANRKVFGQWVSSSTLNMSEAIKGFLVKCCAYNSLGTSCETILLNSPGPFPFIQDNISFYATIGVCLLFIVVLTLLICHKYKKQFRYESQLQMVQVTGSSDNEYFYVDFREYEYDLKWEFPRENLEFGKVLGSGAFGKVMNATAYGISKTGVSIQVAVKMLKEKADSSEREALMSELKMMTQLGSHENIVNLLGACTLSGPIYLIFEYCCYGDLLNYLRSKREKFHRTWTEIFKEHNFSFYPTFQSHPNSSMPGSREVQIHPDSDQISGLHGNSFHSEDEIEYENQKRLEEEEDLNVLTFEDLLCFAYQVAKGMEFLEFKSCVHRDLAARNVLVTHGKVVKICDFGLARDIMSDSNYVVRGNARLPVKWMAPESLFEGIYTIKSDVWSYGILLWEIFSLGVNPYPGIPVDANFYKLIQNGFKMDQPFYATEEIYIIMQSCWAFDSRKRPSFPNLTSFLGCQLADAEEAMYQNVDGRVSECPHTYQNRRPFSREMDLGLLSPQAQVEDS", "assay": "FLT3 enzyme inhibitory ability (ADP-Glo kinase assay)", "assay_type": "biochemical", "settings": "human FLT3-ITD enzyme 10 ng, ATP 10 μM, 25° C. 1 hour", "outline": "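Purified human FLT3-ITD (10 ng) with 10 μM ATP and specific substrate in 40 mM Tris-HCl pH 7.4, 20 mM MgCl2, 0.5 mg/mL BSA, 50 μM DTT, 1 h at 25 °C. ADP formation read by ADP-Glo luminescence; IC50 (nM) versus solvent-treated control.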"}, "CDK4-cyclinD1": {"molecular_target": "CDK4-cyclinD1 (Homo sapiens, UniProt P11802)", "sequence (P11802 whole entry)": "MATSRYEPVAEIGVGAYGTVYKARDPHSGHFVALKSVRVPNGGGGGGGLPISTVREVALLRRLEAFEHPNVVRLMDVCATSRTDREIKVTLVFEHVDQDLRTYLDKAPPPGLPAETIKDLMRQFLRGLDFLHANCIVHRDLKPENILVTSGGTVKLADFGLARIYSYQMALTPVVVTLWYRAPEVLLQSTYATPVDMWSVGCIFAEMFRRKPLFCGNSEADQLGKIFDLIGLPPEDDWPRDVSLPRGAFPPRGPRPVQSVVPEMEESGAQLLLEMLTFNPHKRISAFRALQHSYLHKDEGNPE", "sequence (P24385 whole entry partner)": "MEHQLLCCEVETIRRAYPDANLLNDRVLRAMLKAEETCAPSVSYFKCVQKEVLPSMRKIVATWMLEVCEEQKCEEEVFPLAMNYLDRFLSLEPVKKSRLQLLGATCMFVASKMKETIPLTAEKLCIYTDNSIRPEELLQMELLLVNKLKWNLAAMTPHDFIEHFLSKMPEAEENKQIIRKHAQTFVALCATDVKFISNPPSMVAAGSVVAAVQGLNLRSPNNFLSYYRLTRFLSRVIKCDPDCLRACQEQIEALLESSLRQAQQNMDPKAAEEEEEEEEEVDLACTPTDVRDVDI", "assay": "scanMAX kinase assay panel", "assay_type": "binding", "parameters": "purchased DiscoverX (scanMAX panel, contract assay)", "settings": "read-out: control percentage (% control)", "method": "The activities of the compounds according to the present invention to more diverse enzymes were evaluated. Specifically, it was decided that the enzyme selectivity of Example 74 selected from the compounds of Examples 1 to 129 was measured at the request of DiscoverX, and the experiment was conducted using a scanMAX™ kinase assay panel. At this time, as a drug to treat the enzyme, a solution prepared by dissolving in DMSO at a concentration of 1 μM was used, and the control percentage (% control) was determined by the method of Equation 1 below, and the results were shown in Table 2 below.\nIn Equation above, the positive control and negative control mean compounds showing control percentages of 0% and 100% as DMSO, respectively."}},
  "data": [
    {"smiles": "CN1CCN(c2ccc(Nc3nc(N4OCC[C@H]4c4ccccc4)c4cc[nH]c4n3)cc2)CC1", "note": "[Example 74, (S)-N-(4-(4-methylpiperazin-1-yl)phenyl)-4-(3-phenylisoxazolidin-2-yl)-7H-pyrrolo[2,3-d]pyrimidin-2-amine]", "values": [
      {"measurement": "GI50", "setting": "MV4-11 cells", "result": "≥ 250", "unit": "nM"},
      {"measurement": "IC50", "setting": "human FLT3-ITD enzyme", "result": "> 500", "unit": "nM"},
      {"measurement": "remaining binding at 1 µM", "setting": "CDK4-cyclinD1", "result": 0.55, "unit": "%"}
    ]}
  ]
}
